These are literature values, as cited in patent US10105372B2, “Methods of treating obesity using antioxidant inflammation modulators” (REATA PHARMACEUTICALS, INC., priority 2010, dated 2018).

For this data set the following is noted: monkey, in vivo, po; cited from earlier work.

Take `COC(=O)[C@]12CCC(C)(C)C[C@H]1[C@H]1C(=O)C=C3[C@@]4(C)C=C(C#N)C(=O)C(C)(C)[C@@H]4CC[C@@]3(C)[C@]1(C)CC2` [Form B, CDDO-Me]: the bioavailability entry was “higher than that of Form A”.
